The assay can be described thus: inhibitors of HCV replicon RNA replication – cell-based, luminescence, HCV NS3 helicase inhibitor project, late-stage follow-up (AID 463235). To be noted: HCV replicon cells, RNA blot hybridization, 3 days; for IC90: measured here: 90% replicon inhibition. In general terms: A replicon is a self-replicating genome or part of one, used to study replication in cells.

The structures appear in SMILES notation. Active and inactive are the calls of the source. The rule behind the calls is not given here. Where only a bound is given, the exact number is not on record here.

On to `Cc1ccc(C(=O)C2=C(O)C(=O)N(Cc3ccco3)C2c2cccc(Cl)c2)o1` (centres undefined), for which the IC50 was > 10 µM (inactive) and the IC90 is above 10 µM.
Turning to `CCCCCOc1ccc(C2C(C(=O)c3ccc(C)o3)=C(O)C(=O)N2c2cc(C)on2)cc1` (centres undefined), the IC50 was > 10 µM (inactive) and the 90% effect concentration (IC90) is above 10 µM.
Turning to `COc1ccc(C=NNC(=O)c2cc(O)c(O)c(O)c2)cc1COc1ccc(C(=O)OCC(C)C)cc1`, the IC50 is > 10 µM (inactive) and the IC90 is above 10 µM.
Take `CCOc1cccc(C2C(C(=O)c3ccc(C)o3)=C(O)C(=O)N2Cc2ccccc2)c1` (centres undefined): the IC50 is > 10 µM (inactive) and the IC90 was above 10 µM.
For the compound `COc1cc(C2C(C(=O)c3ccc(C)o3)=C(O)C(=O)N2c2cc(C)on2)ccc1OCc1ccccc1` (centres undefined), the IC50 was > 10 µM (inactive) and the IC90 is above 10 µM.
Consider `Cc1cc(N2C(=O)C(O)=C(C(=O)c3ccc(C)o3)C2c2ccc(OCc3ccccc3)cc2)no1` (centres undefined), for which the IC50 was > 10 µM (inactive) and the IC90 is above 10 µM.
The matching figures for `COc1cccc(-n2c(SCc3cc(=O)oc4cc(O)c(O)cc34)nc3ccccc3c2=O)c1`: > 10 µM (inactive) and above 10 µM.

The IC50 is the concentration at which inhibition is half-maximal. The term IC90 denotes the concentration needed for an effect of 90%. Lower therefore signals an effect from little substance.
